Entries after “also recorded” stand apart in the source; their conditions may differ.
Columns and labels:
[1] = tested on: Poly [dG] Poly [dC]; test: Alkylation of DNA by reduced PBIs; type: biochemical; details: reduced PBI (H2, Pd on carbon), pH 7.4 tris buffer, 30° C., 24 h
Protocol: (§1) Alkylation of DNA by Reduced PBIs. To a mixture of 1–2 mg of DNA (poly[dA]. poly[dT], poly[dG]. poly[dC], poly[dA-dT]. poly[dT-dA]) in 2.0 mL of 0.05 M of pH 7.4 tris buffer and 2 mg of Pd on carbon was added a five-to-one base pair equivalent amount of the PBI dissolved in 0.5 mL of dimethylsulfoxide. The resulting solution was degassed under argon for 30 min., after which the mixture was purged with H2 for 10 min. The solution was then purged with argon for 10 min. and the placed in a 30° C. bath for 24 h. The reaction was opened to the air and the catalyst was removed with a Millex-PF […] syringe filter. The filtrate was adjusted to 0.3M acetate with a 3M stock solution of pH 5.1 acetate and the diluted with two volumes of ethanol. The mixture was chilled at −20° C. for 12 h and the DNA pellet collected by centrifuging at 12,000 g for 20 min. The pellet was redissolved in water and then precipitated and centrifuged again. The resulting pellet was suspended in ethanol, centrifuged, and dried.

[2] = tested on: Poly [dA] Poly [dT]; test: Alkylation of DNA by reduced PBIs; type: biochemical; details: reduced PBI (H2, Pd on carbon), pH 7.4 tris buffer, 30° C., 24 h
Protocol: as §1

[3] = tested on: DT-diaphorase; test: DT-Diaphorase reduction kinetics; type: biochemical; details: pH 7.4 tris.HCl, anaerobic, 30° C., 0.3 mM NADH, 14.5 nM enzyme active sites
Protocol: DT-Diaphorase Reduction Kinetics Studies. Kinetic studies were carried out in 0.05 M pH 7.4 tris.HCl buffer, under anaerobic conditions, employing Thunberg cuvettes. A 2 mM stock solution of the appropriate PBI or APBI was prepared in dimethyl sulfoxide (DMSO). To the top port was added the quinone stock and to the bottom port was added DT-diaphorase and NADH in the tris buffer. The top and bottom ports were purged with argon for 20 minutes and equilibrated to 30° C. The ports were then mixed and the reaction followed at 296 nm for 25 minutes to obtain initial rates. The concentrations upon after mixing were 0.3 mM NADH, 1 to 20×10^-5 M quinone, and 14.5 nM (based on flavin) of enzyme active sites. The value of Δε was calculated from the initial and final absorbance values for complete quinone reduction, usual value for Δε is 6000 to 8000 M−1 cm−1. The value of Δε was used to calculate Vmax in M sec-1. The results were fitted to a Lineweaver-Burke plot from which kcat/Km values were calculated based on 14.5 nM of active sites.

[4] = tested on: Human tumor cells; test: Hollow fiber assay (in vivo screen, National Cancer Institute); details: for Total Score (hollow fiber score): 12 cell lines × 2 sites × 2 doses, highest possible score 96; for Intraperitonal Score: fibers implanted intraperitoneally; for Intraperitonal Score / Subcutaneous Score: IP dosing QD×4, high and low dose, score of two per test with % T/C of 50 or less; for Subcutaneous Score: fibers implanted subcutaneously; for Cancer cell line types sensitive: hollow fiber assay
Protocol: Hollow fiber assays are carried out in the following way. Human tumor cells are cultivated in polyvinylidene fluoride hollow fibers, and a sample of each cell line is implanted into each of two physiological compartments (intraperitoneally and subcutaneously). Mice are treated with either a high or a low dose using a QD×4 schedule (four daily treatments) administered intraperitoneally. Altogether, twelve cell lines are studied resulting in 48 possible test combinations (12 cell lines×2 sites×2 doses). […] These compounds are covered by two patents. (Skibo, E. B. and Islam, I. Synthesis and Elucidation of Azamitosene and Iminoazamitosene. U.S. Pat. No. 5,015,742 1991; Skibo, E. B., Islam, I. and Alberts, D. S., Antineoplastic Agents and Methods of Using the Same. U.S. Pat. No. 5,246,955, 1993).

[5] = tested on: B-16 melanoma; test: B-16 melanoma model (syngraft) in C57/bl mice; type: in vivo; details: 1 and 3 mg/Kg IP on days 1, 5, and 9 after tumor implantation into front flank muscle
Protocol: These compounds were studied at two dose levels: 1 and 3 mg/Kg IP on days 1, 5, and 9 after tumor implantation into the front flank muscle. Shown in the bar graph is the area under the tumor versus time curve plotted against dose for each enantiomer.

[6] = tested on: cancer cell lines; test: Cytotoxicity (−log LC50) against cancer cell lines by cancer type; type: cell-based; details: for cytotoxicity (in words): cancer cell lines, FIG. 2 and FIG. 4
Excerpt: Each −log LC50 value is the average of up to eight values.
FIG. 4. illustrates the plots of −Log LC50 versus cancer type for S(−)-1, 2, 3. Each cancer type represents the average of six to eight different cancer cell lines.

What does the source list for “3-Carbamido-6-aziridinyl-2,3-dihydro-7-methyl-1H-pyrrolo[1,2-a]benzimidazole-5,8-dione [S(−)-C]”?
Percentages of PBI Incorporation into DNA [1]: 12.4%; Percentages of PBI Incorporation into DNA [2]: 70%; Vmax [3]: 21.8 nM/s

With `CC(=O)OC1CCN2C1=NC1C(=O)C(N3CC3)=C(C)C(=O)C12` (centres unmarked) [PBI-A] as the compound, how does the “Total Score (hollow fiber score)” value [4] read?
Its value is 48.

What about the “Intraperitonal Score” value [4] of the same compound?
Its value is 40.

What about the “Subcutaneous Score” value [4] of the same compound?
The value was 8.

And the “Cancer cell line types sensitive” value [4]?
The value was “melanoma, NSC lung cancer, breast cancer, and ovarian cancer”.

And the “activity in the hollow fiber assay / in vivo” value [4]?
Its value is “active in the hollow fiber assay”.

Which results are given for “3-Amino-6-azindinyl-2,3-dihydro-7-methyl-1H-pyrrolo[1,2-a]benzimidazole-5,8-dione [S(−)-B]”?
Percentages of PBI Incorporation into DNA ([1]; listed as S(−)−B): 52%; Percentages of PBI Incorporation into DNA ([2]; listed as S(−)−B): 186%

How did the “Percentages of PBI Incorporation into DNA” value (“Percentages” for short) [1] turn out when `CC(=O)NC1CCn2c1nc1c2C(=O)C(C)=C(N2CC2)C1=O` (stereo not drawn) [S(−)-A] was run?
The value was 6.6%.

What about the “Percentages” value [2] of the same compound?
The value was 17.4%.

What about the “Total Score (hollow fiber score)” value [4] of the same compound?
Its value is 52.

And the “Intraperitonal Score” value [4]?
Its value is 38.

And the “Subcutaneous Score” value [4]?
Its value is 14.

What about the “activity in B-16 melanoma model (area under the tumor versus time curve)” value ([5]; listed as S(−) Yujungamycin A) of the same compound?
Its value is “failed to show much difference in activity between the enantiomers; also recorded: no apparent differences between the enantiomers”.

What about the “activity in B-16 melanoma model (area under the tumor versus time curve)” value ([5]; listed as S(−)-Yujungamycin A) of the same compound?
Its value is “activity”.

And the Vmax [3]?
Its Vmax is 47.6 nM/s.

How did the “Percentages” value [1] turn out when “3-Carbamido-6-aziridinyl-2,3-dihydro-7-methyl-1H-pyrrolo[1,2-a]benzimidazole-5,8-dione [R(+)-C]” was run?
Its value is 17%.

What about the “Percentages” value [2] of the same compound?
Its value is 31%.

And the Vmax [3]?
The Vmax was 39.3 nM/s.

Which “Percentages” value ([1]; listed as R(+)−B) does the source give for “3-Amino-6-azindinyl-2,3-dihydro-7-methyl-1H-pyrrolo[1,2-a]benzimidazole-5,8-dione [R(+)-B]” here?
Its value is 105%.

What about the “Percentages” value ([2]; listed as R(+)−B) of the same compound?
The value was 60%.

And the Vmax [3]?
The Vmax was 14.6 nM/s.

Which “cytotoxicity (in words)” value [6] does the source give for “3-Amino-6-azindinyl-2,3-dihydro-7-methyl-1H-pyrrolo[1,2-a]benzimidazole-5,8-dione [Yujungamycin B]” here?
The value was “high potency”.

And the “cytotoxicity (in words)” value ([6]; listed as 2)?
Its value is “high cytotoxicity against non-small-cell lung, central nervous system, melanoma, ovarian, and renal cancers”.

And the “change in cytotoxicity, 3-hydroxy changed to 3-amino” value ([6]; relative to the 3-hydroxy derivative)?
Its value is “˜million-fold change in cytotoxicity”.

What does the source list for `CC1=C(N2CC2)C(=O)c2nc3n(c2C1=O)CCC3OC(N)=O` (centres unmarked) [PBI-B]?
Total Score (hollow fiber score) [4]: 30; Intraperitonal Score [4]: 24; Subcutaneous Score [4]: 6; Cancer cell line types sensitive [4]: melanoma, NSC lung cancer, breast cancer, and ovarian cancer; activity in the hollow fiber assay / in vivo [4]: active in the hollow fiber assay

— patent publication US6998413B1, “Treatment of neoplasms with yujungamycins” (priority 1999, dated 2006)
